Key:
Assay type in all cases: in vivo
[1] = tested on: Rice green leafhopper (Nephotettix virescens); experiment: Rice green leafhopper (Nephotettix virescens) spray test B.12; conditions: for Activity in %: comparative experiment, 10 ppm
Experimental: (§1) Four to five-week old rice seedlings with cut upper leaf portion were cleaned and washed 24 hours before spraying. The active compounds were formulated in 1:1 acetone:water (vol:vol), and 0.01% vol/vol surfactant (Kinetic® HV) was added. Potted rice seedlings were sprayed with 5-6 ml test solution, air dried, covered with Mylar cages and inoculated with 10 adults. Treated rice plants were kept at about 28-29° C. and relative humidity of about 50-60%. Percent mortality was recorded after 72 hours.
(§2) The compound of example I-1 was compared with the compound of example I.B-4 of WO 2015/040116 having an unsubstituted pyrimidin-5-yl ring instead of the present 2-chloropyrimidin-5-yl ring with respect to the insecticidal activity. The assays were carried out as described above for the respective pest (the cotton aphid assay according to B.3).

[2] = tested on: Vetch aphid (Megoura viciae); experiment: Vetch aphid (Megoura viciae) leaf disk test B.19; conditions: foliar, 120 h, read-out: mortality in comparison with untreated controls
Experimental: For evaluating control of vetch aphid (Megoura viciae) through contact or systemic means the test unit consisted of 24-well-microtiter plates containing broad bean leaf disks.
The compounds were formulated using a solution containing 75% v/v water and 25% v/v DMSO. Different concentrations of formulated compounds were sprayed onto the leaf disks at 2.5 μl, using a custom built micro atomizer, at two replications.
After application, the leaf disks were air-dried and 5-8 adult aphids placed on the leaf disks inside the microtiter plate wells. The aphids were then allowed to suck on the treated leaf disks and incubated at about 23±1° C. and about 50±5% relative humidity for 5 days. Aphid mortality and fecundity was then visually assessed.

[3] = tested on: Cotton aphid (Aphis gossypii); experiment: Cotton aphid (Aphis gossypii) foliar spray test B.3; conditions: for Activity in %: comparative experiment, 300 ppm, assay according to B.3
Experimental: (§3) The active compounds were formulated by a Tecan liquid handler in 100% cyclohexanone as a 10,000 ppm solution supplied in tubes. The 10,000 ppm solution was serially diluted in 100% cyclohexanone to make interim solutions. These served as stock solutions for which final dilutions were made by the Tecan in 50% acetone:50% water (v/v) into 10 or 20 ml glass vials. A nonionic surfactant (Kinetic®) was included in the solution at a volume of 0.01% (v/v). The vials were then inserted into an automated electrostatic sprayer equipped with an atomizing nozzle for application to plants/insects.
Cotton plants at the cotyledon stage were infested with aphids prior to treatment by placing a heavily infested leaf from the main aphid colony on top of each cotyledon. Aphids were allowed to transfer overnight to accomplish an infestation of 80-100 aphids per plant and the host leaf was removed. The infested plants were then sprayed by an automated electrostatic plant sprayer equipped with an atomizing spray nozzle. The plants were dried in the sprayer fume hood, removed from the sprayer, and then maintained in a growth room under fluorescent lighting in a 24-hr photoperiod at 25° C. and 20-40% relative humidity. Aphid mortality on the treated plants, relative to mortality on untreated control plants, was determined after 5 days.
as §2

[4] = tested on: Cowpea aphid (Aphis craccivora); experiment: Cowpea aphid (Aphis craccivora) spray test B.5; conditions: for Activity in %: comparative experiment, 100 ppm
Experimental: (§4) The active compound was dissolved at the desired concentration in a mixture of 1:1 (vol:vol) distilled water: acetone. Surfactant (Kinetic® HV) was added at a rate of 0.01% (vol/vol). The test solution was prepared at the day of use.
Potted cowpea plants were colonized with approximately 30-50 aphids of various stages by manually transferring a leaf tissue cut from infested plant 24 hours before application. Plants were sprayed with the test solutions using a DeVilbiss® hand atomizer at 20-30 psi (≈1.38 to 2.07 bar) after the pest population has been checked. Treated plants were maintained on light carts at about 25-26° C. Percent mortality was assessed after 72 hours.
as §2

[5] = tested on: Southern armyworm (Spodoptera eridania); experiment: Southern armyworm (Spodoptera eridania) foliar spray test B.15; conditions: for Activity in %: comparative experiment, 300 ppm
Experimental: as §3
Lima bean plants (variety Sieva) were grown 2 plants to a pot and selected for treatment at the 1st true leaf stage. Test solutions were sprayed onto the foliage by an automated electrostatic plant sprayer equipped with an atomizing spray nozzle. The plants were dried in the sprayer fume hood and then removed from the sprayer. Each pot was placed into perforated plastic bags with a zip closure. About 10 to 11 armyworm larvae were placed into the bag and the bags zipped closed. Test plants were maintained in a growth room at about 25° C. and about 20-40% relative humidity for 4 days, avoiding direct exposure to fluorescent light (24 hour photoperiod) to prevent trapping of heat inside the bags. Mortality and reduced feeding were assessed 4 days after treatment, compared to untreated control plants.
as §2

[6] = tested on: Rice brown plant hopper (Nilaparvata lugens); experiment: Rice brown plant hopper (Nilaparvata lugens) spray test B.13; conditions: 72 h, read-out: mortality in comparison with untreated controls
Experimental: as §1, with “seedlings” for “seedlings with cut upper leaf portion”, “(vol:vol)” for “(vol:vol),”

[7] = tested on: Green Soldier Stink Bug (Nezara viridula); experiment: Green soldier stink bug (Nezara viridula) test B.8; conditions: in Glycine max, 120 h, read-out: mortality in comparison with untreated controls
Experimental: as §4
Soybean pods were placed in 90×50 mm glass Petri dishes lined with moist filter paper and inoculated with ten late 3rd instar N. viridula. Using a hand atomizer, an approximately 2 ml solution was sprayed into each Petri dish. Treated cups were kept at about 25-26° C. and relative humidity of about 65-70%. Percent mortality was recorded after 5 days.

[8] = tested on: Green Peach Aphid (Myzus persicae); experiment: Green peach aphid (Myzus persicae) foliar spray test B.7; conditions: for Activity in %: comparative experiment, 300 ppm
Experimental: as §3
Bell pepper plants at the first true-leaf stage were infested prior to treatment by placing heavily infested leaves from the main colony on top of the treatment plants. Aphids were allowed to transfer overnight to accomplish an infestation of 30-50 aphids per plant and the host leaves were removed. The infested plants were then sprayed by an automated electrostatic plant sprayer equipped with an atomizing spray nozzle. The plants were dried in the sprayer fume hood, removed, and then maintained in a growth room under fluorescent lighting in a 24 h photoperiod at about 25° C. and about 20-40% relative humidity. Aphid mortality on the treated plants, relative to mortality on untreated control plants, was determined after 5 days.
as §2

[9] = tested on: Orchid thrips (Dichromothrips corbetti); experiment: Orchid thrips (Dichromothrips corbetti) floral immersion test B.10; conditions: for Activity in %: comparative experiment, 10 ppm
Experimental: Dichromothrips corbetti adults used for bioassay were obtained from a colony maintained continuously under laboratory conditions. For testing purposes, the test compound was diluted in a 1:1 mixture of acetone:water (vol:vol), plus Kinetic® HV at a rate of 0.01% v/v.
Thrips potency of each compound was evaluated by using a floral immersion technique. All petals of individual, intact orchid flowers were dipped into treatment solution and allowed to dry in Petri dishes. Treated petals were placed into individual re-sealable plastic along with about 20 adult thrips. All test arenas were held under continuous light and a temperature of about 28° C. for duration of the assay. After 3 days, the numbers of live thrips were counted on each petal. The percent mortality was recorded 72 hours after treatment.
as §2

[10] = tested on: Diamond back moth (Plutella xylostella); experiment: Diamond back moth (Plutella xylostella) leaf dip test B.6; conditions: 300 ppm; cabbage leaf dip; 72 hours after treatment
Experimental: as §4
Leaves of cabbage were dipped in test solution and air-dried. Treated leaves were placed in petri dishes lined with moist filter paper and inoculated with ten 3rd instar larvae. Mortality was recorded 72 hours after treatment. Feeding damages were also recorded using a scale of 0-100%.

Compound	mortality at 300 ppm ([1]; Nephotettix virescens, 72 h, read-out: mortality in comparison with untreated controls) [%]	Activity in % [1] [%]	mortality at 2500 ppm [2] [%]	mortality at 300 ppm ([3]; Aphis gossypii, foliar, 120 h, read-out: mortality in comparison with untreated controls) [%]	Activity in % [3] [%]	mortality at 300 ppm ([4]; Aphis craccivora, 72 h, read-out: mortality in comparison with untreated controls) [%]	Activity in % [4] [%]	mortality at 300 ppm ([5]; Spodoptera eridania, in Phaseolus lunatus, foliar, 96 h, read-out: mortality in comparison with untreated controls) [%]	Activity in % [5] [%]	mortality at 300 ppm [6] [%]	mortality at 300 ppm [7] [%]	mortality at 2500 ppm ([8]; Myzus persicae, foliar, 120 h, read-out: mortality in comparison with untreated controls) [%]	Activity in % [8] [%]	mortality at 300 ppm ([9]; Thrips, 72 h, read-out: mortality in comparison with untreated controls) [%]	Activity in % [9] [%]	mortality in comparison with untreated controls [10]
N#CC1(C(=O)N=c2ccccn2Cc2cnc(Cl)nc2)CC1 [I-1, N-[1-[(2-chloropyrimidin-5-yl)methyl]-2-pyridylidene]-1-cyano-cyclopropanecarboxamide]	> 75	90	> 75	> 75	90	> 75	50	> 75	100	> 75	> 75	> 75	100	> 75	100	–
CON=CC(=O)N=c1ccccn1Cc1cnc(Cl)nc1 [I-2]	–	–	–	–	–	–	–	–	–	–	–	–	–	–	–	over 75%
N#CC1(C(=O)N=c2ccccn2Cc2cncnc2)CC1 [I.B-4, reference compound]	–	50	–	–	0	–	0	–	0	–	–	–	50	–	0	–

Source: patent US11142514B2, “Imino compounds with a 2-chloropyrimidin-5-yl substituent as pest-control agents” (BASF SE, priority 2015, dated 2021)
